Test results from patent US20100119599A1 (ARCHER PHARMACEUTICALS, INC., priority 2006, published 2010).

Key:
Aβ1-42 = test: Measurement of Aβ1-42 in culture medium of 7W WT APP751 CHO cells by ELISA; type: cell-based, Chinese hamster; conditions: for activity at 5 µM: Cricetulus griseus, Table 1, 5 μM test compound, CHO cells stably transfected with human APP751, culture medium, ELISA, control DMSO, 0 = no detectable amount, read-out: Aβ1-42 (% of control); for Aβ1-42 (% of control): CHO cells that overexpress APP751, zero = below the detection limit of the assay
Aβ1-40 = test: Measurement of Aβ1-40 in culture medium of 7W WT APP751 CHO cells by ELISA; type: cell-based, Chinese hamster; conditions: for activity at 5 µM: Cricetulus griseus, Table 1, 5 μM test compound, CHO cells stably transfected with human APP751, culture medium, ELISA, control DMSO, 0 = no detectable amount; for Aβ1-40 (% of control): CHO cells that overexpress APP751, zero = below the detection limit of the assay
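Further: 5 µM test compound but RI-coded compounds at 10 µM for 24 hours.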

SMILES	activity at 5 µM (Aβ1-42) [%]	activity at 5 µM (Aβ1-40) [%]	Aβ1-42 (% of control) (Aβ1-42)	Aβ1-40 (% of control) (Aβ1-40)
CCOCCOC(=O)C1=C(C)NC2=C(C(=O)CCC2)C1c1cccc(O)c1 (stereo not shown) [ST013342, 2-ethoxyethyl 4-(3-hydroxyphenyl)-2-methyl-5-oxo-1,4,6,7,8-pentahydroquinoline-3-carboxylate]	55.5	69.7	–	–
CC1=C(C(=O)OC2CCCC2)C(c2ccc(C)o2)C2=C(CC(c3cccs3)CC2=O)N1 (stereo not shown) [ST051567, cyclopentyl 2-methyl-4-(5-methyl(2-furyl))-5-oxo-7-(2-thienyl)-1,4,6,7,8-pentahydroquinoline-3-carboxylate]	85	60.4	–	–
CCCOC(=O)C1=C(C)NC2=C(C(=O)CC(c3ccccc3)C2)C1c1ccc(CC)cc1 (stereo not shown) [ST017264, propyl 4-(4-ethylphenyl)-2-methyl-5-oxo-7-phenyl-1,4,6,7,8-pentahydroquinoline-3-carboxylate]	48.2	29.7	–	–
COc1cccc(NC(=O)CSC2=C(C#N)C(c3ccccc3)C(C(=O)Nc3ccc(Cl)cc3)=C(C)N2)c1 (stereo not shown) [RI_55]	–	–	40.3 % of control	48.1 % of control
CCCCCCNC(=O)CSC1=C(C#N)C(c2cccs2)C(C(=O)Nc2ccccc2)=C(C)N1 (stereo not shown) [RI_26]	–	–	26.7 % of control	37.6 % of control
CC1=C(C(=O)Nc2ccccc2)C(c2ccsc2)C(C#N)=C(SCC(=O)Nc2ccc(F)cc2)N1 (stereo not shown) [RI_77]	–	–	25.4 % of control	16.9 % of control
COc1ccc(COC(=O)C2=C(C)NC3=C(C(=O)CCC3)C2c2cccs2)cc1 (stereo not shown) [ST052371, (4-methoxyphenyl)methyl 2-methyl-5-oxo-4-(2-thienyl)-1,4,6,7,8-pentahydroquinoline-3-carboxylate]	92.5	59.8	–	–
CCCCCOC(=O)C1=C(C)NC2=C(C(=O)CC(C)(C)C2)C1c1ccc(Cl)c(Cl)c1 (stereo not shown) [ST216061, pentyl 4-(3,4-dichlorophenyl)-2,7,7-trimethyl-5-oxo-1,4,6,7,8-pentahydroquinoline-3-carboxylate]	0	0	–	–
CCOc1ccc(C2C(C(=O)OC(C)C)=C(C)NC3=C2C(=O)CC(c2ccc(OC)cc2)C3)cc1 (stereo not shown) [ST017011, methylethyl 4-(4-ethoxyphenyl)-7-(4-methoxyphenyl)-2-methyl-5-oxo-1,4,6,7,8-pentahydroquinoline-3-carboxylate]	74	45.7	–	–
CCOC(=O)C1=C(N)n2c(s/c(=C\c3ccccc3OC)c2=O)=C(S(=O)(=O)c2ccccc2)C1c1ccccc1OC (stereo not shown) [ST011325, ethyl 5-amino-7-(2-methoxyphenyl)-2-[(2-methoxyphenyl)methylene[-3-oxo-8-(phenylsulfonyl)-4,7-dihydro-1,3-thiazolidino[3,2-a]pyridine-6-carboxylate]	–	–	99 % of control	62.35 % of control
CC1=C(C(=O)OC(C)C)C(c2ccc(Cl)cc2)C2=C(CC(C)(C)CC2=O)N1 (stereo not shown) [ST017213, methylethyl 4-(4-chlorophenyl)-2,7,7-trimethyl-5-oxo-1,4,6,7,8-pentahydroquinoline-3-carboxylate]	91.4	44.4	–	–
CCOCCOC(=O)C1=C(C)NC2=C(C(=O)CCC2)C1c1ccc(CC)cc1 (stereo not shown) [ST013344, 2-ethoxyethyl 4-(4-ethylphenyl)-2-methyl-5-oxo-1,4,6,7,8-pentahydroquinoline-3-carboxylate]	86.6	54.4	–	–
N#CC1=C(N)Nc2c(c(=O)oc3ccccc23)C1c1ccc(Cl)cc1 (stereo not shown) [ST014144, 2-amino-4-(4-chlorophenyl)-5-oxo-1,4-dihydrochromeno[4,3-b]pyridine-3-carbonitrile]	–	–	66.02 % of control	66.08 % of control
CCC(C)OC(=O)C1=C(C)NC2=C(C(=O)CC(c3ccccc3)C2)C1c1ccc(Cl)c(Cl)c1 (stereo not shown) [ST017319, methylpropyl 4-(3,4-dichlorophenyl)-2-methyl-5-oxo-7-phenyl-1,4,6,7,8-pentahydroquinoline-3-carboxylate]	97.5	26.8	–	–
CC(C)Oc1ccc(/C=c2\sc3n(c2=O)C(N)=C(C#N)C(c2ccc(OC(C)C)cc2)C=3C#N)cc1 (stereo not shown) [ST025026, 5-amino-7-[4-(methylethoxy)phenyl]-2-{[4-(methylethoxy)phenyl]methylene}-3-oxo-4,7-dihydro-1,3-thiazolidino[3,2-a]pyridine-6,8-dicarbonitrile]	–	–	0 % of control	26.82 % of control
CCCCOC(=O)C1=C(C)NC2=C(C(=O)CC(C)(C)C2)C1c1cc2c(cc1[N+](=O)[O-])OCO2 (stereo not shown) [ST216053, butyl 2,7,7-trimethyl-4-(6-nitro(2H-benzo[d]1,3-dioxolen-5-yl))-5-oxo-1,4,6,7,8-pentahydroquinoline-3-carboxylate]	6.37	22.2	–	–

SMILES	activity at 5 µM (Aβ1-42) [%]	activity at 5 µM (Aβ1-40) [%]	Aβ1-42 (% of control) (Aβ1-42)	Aβ1-40 (% of control) (Aβ1-40)
CC1=C(C(=O)OC(C)C)C(c2cccc(O)c2)C2=C(CCCC2=O)N1 (stereo not shown) [ST013174, methylethyl 4-(3-hydroxyphenyl)-2-methyl-5-oxo-1,4,6,7,8-pentahydroquinoline-3-carboxylate]	73.1	34.3	–	–
COc1ccc(COC(=O)C2=C(C)NC3=C(C(=O)CCC3)C2c2ccc(C(F)(F)F)cc2)cc1 (stereo not shown) [ST052362, (4-methoxyphenyl)methyl 2-methyl-5-oxo-4-[4-(trifluoromethyl)phenyl]-1,4,6,7,8-pentahydroquinoline-3-carboxylate]	0	7.11	–	–
COc1ccc(C2C(C#N)=C(N)NC(C(C#N)C#N)=C2C#N)cc1OC (stereo not shown) [ST025482, 6-amino-2-(dicyanomethyl)-4-(3,4-dimethoxyphenyl)-1,4-dihydropyridine-3,5-dicarbonitrile]	–	–	45.1 % of control	62.83 % of control
CCOC(=O)C1=C(C)NC2=C(C(=O)CCC2)C1c1ccccc1OCc1ccccc1 (stereo not shown) [ST013216, ethyl 2-methyl-5-oxo-4-[2-(phenylmethoxy)phenyl]-1,4,6,7,8-pentahydroquinoline-3-carboxylate]	88.8	0	–	–
COc1ccc(C2C(C(=O)OC3CCCCC3)=C(C)NC3=C2C(=O)CCC3)cc1Br (stereo not shown) [ST013429, cyclohexyl 4-(3-bromo-4-methoxyphenyl)-2-methyl-5-oxo-1,4,6,7,8-pentahydroquinoline-3-carboxylate]	45.4	31.9	–	–
COc1ccc(COC(=O)C2=C(C)NC3=C(C(=O)CCC3)C2c2ccccc2C(F)(F)F)cc1 (stereo not shown) [ST052271, (4-methoxyphenyl)methyl 2-methyl-5-oxo-4-[2-(trifluoromethyl)phenyl]-1,4,6,7,8-pentahydroquinoline-3-carboxylate]	23.9	25.8	–	–
CCOC(=O)C1=C(N)n2c(s/c(=C/c3ccc(C(C)C)cc3)c2=O)=C(C(=O)OCC)C1c1ccc(C(C)C)cc1 (stereo not shown) [ST011764, ethyl 5-amino-6-(ethoxycarbonyl)-7-[4-(methylethyl)phenyl]-2-{[4-(methylethyl)phenyl]methylene}-3-oxo-4,7-dihydro-1,3-thiazolidino[3,2-a]pyridine-8-carboxylate]	–	–	70.37 % of control	83.4 % of control
CCOc1cc(C2C(C(=O)OCC(C)C)=C(C)NC3=C2C(=O)CC(c2ccc(Cl)cc2)C3)ccc1O (stereo not shown) [ST017117, 2-methylpropyl 7-(4-chlorophenyl)-4-(3-ethoxy-4-hydroxyphenyl)-2-methyl-5-oxo-1,4,6,7,8-pentahydroquinoline-3-carboxylate]	81.7	25.7	–	–
CC1=C(C(=O)OC2CCCC2)C(c2ccc(F)c(F)c2)C2=C(CCCC2=O)N1 (stereo not shown) [ST052267, cyclopentyl 4-(3,4-difluorophenyl)-2-methyl-5-oxo-1,4,6,7,8-pentahydroquinoline-3-carboxylate]	52.8	50.7	–	–
CC1=C(C(=O)OC2CCCCC2)C(c2ccc(Br)cc2)C2=C(CCCC2=O)N1 (stereo not shown) [ST017170, cyclohexyl 4-(4-bromophenyl)-2-methyl-5-oxo-1,4,6,7,8-pentahydroquinoline-3-carboxylate]	1.38	3.47	–	–
COc1cc(C2C(C(=O)OCCc3ccccc3)=C(C)NC3=C2C(=O)CC(C)(C)C3)ccc1O (stereo not shown) [ST015094, 2-phenylethyl 4-(4-hydroxy-3-methoxyphenyl)-2,7,7-trimethyl-5-oxo-1,4,6,7,8-pentahydroquinoline-3-carboxylate]	59.8	56.3	–	–
CC1(C)CC(=O)C2=C(C1)N(Cc1ccccc1)C(N)=C(C#N)C21CCOCC1 [ST014138, 2-amino-7,7-dimethyl-5-oxo-1-benzylspiro[1,4,6,7,8-pentahydroquinoline-4,4′-2′ H-3′,4,5′,6′-tetrahydropyran]-3-carbonitrile]	65.3	64.1	–	–
CC1=C(C(=O)Nc2ccccc2)C(c2cccs2)C(C#N)=C(SCC(=O)Nc2ccc(Cl)c(C)c2)N1 (stereo not shown) [RI_72]	–	–	50.9 % of control	40.2 % of control
N#CC1=C(N)NC(S)=C(C#N)C1c1cccc(Br)c1 (stereo not shown) [ST014065, 6-amino-4-(3-bromophenyl)-2-sulfanyl-1,4-dihydropyridine-3,5-dicarbonitrile]	–	–	30.01 % of control	18.6 % of control
CCOC(=O)C1=C(C)NC2=C(C(=O)CC(C)(C)C2)C1c1cccc(OC)c1OC (stereo not shown) [ST013184, ethyl 4-(2,3-dimethoxyphenyl)-2,7,7-trimethyl-5-oxo-1,4,6,7,8-pentahydroquinoline-3-carboxylate]	60.3	73.7	–	–
CC1=C(C(=O)OC2CCCC2)C(c2ccc(Cl)cc2)C2=C(CC(C)(C)CC2=O)N1 (stereo not shown) [ST013081, cyclopentyl 4-(4-chlorophenyl)-2,7,7-trimethyl-5-oxo-1,4,6,7,8-pentahydroquinoline-3-carboxylate]	0.188	0	–	–
